Values joined by “and” are separate entries in the source; they are usually repeats but may differ in a detail not shown here. Identical values can stand only once. “Also recorded” adds a separate entry of the source.
Experiments:
[1] = test system: CYP-induced visceral pain; assay: Acute administration in CYP-induced visceral pain in rats (Von Frey mechanical threshold); assay type: in vivo, rat
Procedure: Female Sprague Dawley rats (Crl:CD(SD)BR, 250-350 g) from Charles River Italy were used in these experiments. Animals were housed with free access to food and water and maintained on a forced 12 hours light-dark cycle at 22-24° C. for at least one week before the experiments were carried out. The animals were handled according to internationally accepted principles for care of laboratory animals (E.E.C. Council Directive 86/609, […]. 18, 1986). Cyclophosphamide, 75 mg/kg i.p. for 3 times, every 3rd day, was dissolved in distilled water and administered to animals by i.p. route (volume 5 mL/kg). Appropriate weight of Compd. 1 or Compd. 2 was dissolved in saline, all doses of test compounds were administered by oral gavage (volume 2 mL/kg). On the day of the experiment, each rat was placed individually in a clear plastic testing box with a grid floor and allowed to acclimatize for at least 10 min. Visceral sensitivity in response to mechanical stimuli was determined using Von Frey monofilaments (1-2-4-8-15-26-60-100 g) applied in the lower abdominal area (close to the urinary bladder) and on both hind paws plantar surface (to evaluate referred pain). Each Von Frey monofilament was applied 5 times at the level of abdomen and 3 times at the level of each paw, in an ascending order of strength at interval of 5 sec. A stimulus-induced response was considered positive when the paw was sharply withdrawn, paw licking occurred, or the animal flinched upon removal of the filament. Behavioral testing on animals was performed at 3 different times: • before CYP administration (in order to acquire basal values) • after CYP administration, before treatment with the test compound, to verify the pathology (in order to acquire pre-treatment values) • after CYP administration, after treatment (in order to acquire post-treatment values) […] The test was performed in blind. Compd. 1 and Compd. […]

CYP-induced cystitis [2] = assay: Follow-up up to 10 days after discontinuation of treatment (body weight, survival); assay type: in vivo
[3] = test system: CYP-induced urinary bladder cystitis; assay: Microscopic examination of urinary bladders after chronic administration (histology, immunohistochemistry); assay type: in vivo, rat
Text: At the end of the efficacy study of chronic administration, the urinary bladders were opened, placed in 10% buffered formalin and stored at room temperature until hystomorphological analysis.
Treatment with Compd. […] The induced lesions consisted of apoptosis, erosions of the mucosa, mitoses of the mucosal cells, mucosal hyperplasia, infiltration of inflammatory cells and micro-hemorrhages. Caspase 3 and caspase 9 expression (markers of apoptosis) as well as Ki67 expression (marker for cell proliferation) were reduced in the group treated with Compd. 1.

[4] = test system: CYP-induced visceral pain; assay: Chronic administration in CYP-induced visceral pain in rats (Von Frey withdrawal threshold); assay type: in vivo, rat
Procedure: Cyclophosphamide, 75 mg/kg i.p. for 3 times, every 3rd day, was dissolved in distilled water and administered to animals by i.p. route (volume 5 mL/kg). Appropriate weight of Compd. 1 or Compd. 2 was dissolved in saline, all doses of test compounds were administered by oral gavage (volume 2 mL/kg).
On the day of the experiment, each rat was placed individually in a clear plastic testing box with a grid floor and allowed to acclimatize for at least 10 min. Visceral sensitivity in response to mechanical stimuli was determined using Von Frey monofilaments (1-2-4-8-15-26-60-100 g) applied in the lower abdominal area (close to the urinary bladder) and on both hind paws plantar surface (to evaluate referred pain).
Each Von Frey monofilament was applied 5 times at the level of abdomen and 3 times at the level of each paw, in an ascending order of strength at interval of 5 sec. A stimulus-induced response was considered positive when the paw was sharply withdrawn, paw licking occurred, or the animal flinched upon removal of the filament.
• before CYP administration (in order to acquire basal values) • after CYP administration and before treatment, to verify the pathology (in order to acquire pre-treatment values) • after chronic treatment, about 18 hours after last administration of Compd. 1 (in order to acquire post-treatment values). • after chronic treatment, 2 hours after the last administration of Compd. 1 (in order to acquire post-treatment values after chronic+acute administration)
Compd. 1 or vehicle was administered p.o. to animals twice daily (according to the pharmacokinetic profile of the compound) for 6 days, starting from 24 hours after last treatment with CYP, when painful symptoms were well established. Nociceptive hypersensitivity was evaluated about 18 hours after the last administration of Compd. 1 (or vehicle) in order to evaluate the effect of chronic administration, or a further dosage of compound was administered and evaluation carried out 2 hours thereafter, in order to compare with acute protocol, described in Example 1.

[5] = test system: CYP-induced visceral pain; assay: Chronic preventive treatment in CYP-induced visceral pain model in rats; comparison with Mesna; assay type: in vivo, rat; conditions: 7 mg/kg twice daily p.o. for 7 days
Procedure: The effect of chronic preventive administration of Compd. 1 in a visceral pain model induced by repeated administration of cyclophosphamide (CYP) in conscious rats was evaluated.
The oral dose of 7 mg/kg of Compd. 1 was chosen on the basis of previous evaluations. Compd. 1 or vehicle was orally administered to animals twice daily (according to the PK profile of the molecule) for 7 days. Mesna_or vehicle was intraperitoneally administered several times a day for 3 days (when CYP was administered).
Repeated treatment with CYP (75 mg/kg i.p. for 3 times, every 3rd day), induced a strong decrease in withdrawal thresholds to noxious stimulus measured at the level of low abdomen and hind-paws. Nociceptive hypersensitivity was evaluated. In the control group, nociceptive thresholds of abdomen and hind-paws were not altered after the treatment with vehicle.
Behavioral testing was performed at 4 different times: • before CYP administration (in order to acquire basal values) • after CYP administration and before treatment with the tested compound, to verify the pathology (in order to acquire pre-treatment values) • after treatment, 42 or 48 hours from the last administration of Compd. 1 or Mesna.

CYP-induced cystitis [6] = assay: Microscopic examination of urinary bladders after chronic preventive administration; assay type: in vivo, rat; conditions: 12 hours before and twice per day from first day of CYP for 7 days
Text: At the end of the study, the urinary bladders were opened, placed in 10% buffered formalin and stored at room temperature until completion of hystomorphological analysis (see Example 6 below).
At the end of the efficacy study of chronic preventive administration, the urinary bladders were opened, placed in 10% buffered formalin and stored at room temperature until hystomorphological analysis.
Treatment with Compd. […] 1.

[7] = immunohistochemistry, versus CYP group
[8] = 7 mg/kg twice daily p.o. for 6 days, about 18 hours after last administration

Compound: C[C@H](C(=O)O)c1ccc(Nc2nc(C(F)(F)F)cs2)cc1 [Compd. 1, (2S)-2-(4-{[4-(trifluoromethyl)-1,3-thiazol-2-yl]amino}phenyl) propanoic acid]
- withdrawal thresholds, abdomen and hind paws ([1]; 1 mg/kg p.o., 2 hours after administration, versus pre-treatment): not significantly different from the pretreatment values
- mechanical threshold, abdomen and hind paws ([1]; 3 mg/kg p.o., 2 hours after administration, versus pre-treatment): statistical significant increase of mechanical threshold in both the areas evaluated
- mechanical threshold, abdomen and hind paws ([1]; 7 mg/kg p.o., 2 hours after administration, versus pre-treatment): statistical significant reduction of painful hypersensitivity in both the abdominal and plantar surface
- mechanical threshold, abdomen and hind paws ([1]; 10 mg/kg p.o., 2 hours after administration, versus pre-treatment): statistically significant increase in mechanical threshold in both the abdomen and paws area; also recorded: statistical significant reduction of painful hypersensitivity in both the abdominal and plantar surface
- mechanical threshold, abdomen and hind paws ([1]; 30 mg/kg p.o., 2 hours after administration, versus pre-treatment): statistically significant increase in mechanical threshold in both the abdomen and paws area
- MED ([1]; p.o., acute administration): 3 mg/kg
- survival (CYP-induced cystitis [2]; vehicle-treated 50%): 65%
- body weight recovery (CYP-induced cystitis [2]; versus vehicle-treated animals): body weight recovery faster than vehicle-treated animals
- inflammatory, degenerative and proliferative lesions of the urinary bladder ([3]; 7 mg/kg oral twice a day for 6 days after CYP): clearly reduced or reversed the inflammatory, degenerative and proliferative lesions
- Incidence: Apoptosis epithelial cell, urinary bladder ([3]; animals of 10/group, 7 mg/kg oral twice a day for 6 days after CYP): 3/10 and 3
- Caspase 3 and caspase 9 expression (markers of apoptosis) [3, 7]: reduced
- Ki67 expression (marker for cell proliferation) [3, 7]: reduced; also recorded: lower grade of positivity
- painful visceral symptoms in both evaluated areas ([4]; 7 mg/kg twice daily p.o. for 6 days plus one further dose, 2 hours following the last administration): fully abolished the painful visceral symptoms in both evaluated areas
- nociceptive hypersensitivity in hind-paws plantar surface [4, 8]: completely reverses the nociceptive hypersensitivity in hind-paws plantar surface
- withdrawal thresholds in the abdomen [4, 8]: almost complete recovery of withdrawal thresholds in the abdomen; also recorded: almost complete increase in withdrawal thresholds in the abdomen
- nociceptive hypersensitivity in hind-paws plantar surface [5]: completely reversed the nociceptive hypersensitivity in hind-paws plantar surface
- withdrawal thresholds in the abdomen [5]: almost complete recovery of withdrawal thresholds in the abdomen
- inflammatory, degenerative, proliferative and hemorrhagic lesions caused by CYP (CYP-induced cystitis [6]): clearly reduced the inflammatory, degenerative, proliferative and hemorrhagic lesions caused by CYP
